The test system of experiment [1] is Akt phosphorylation induced by IGF-1R in HT-29 cells. Briefly: Western blot analysis of Akt phosphorylation induced by IGF-1R. In kind it is cell-based, Human. The conditions noted are these: for phosphorylated AKT levels normalized to actin levels (pAKT/actin): then IGF-1 10 ng/mL 10 min, HT-29. The procedure:
Inhibition of Akt phosphorylation induced by IGF-1R was studied by western blot analysis. Human colon carcinoma HT-29 cells were seeded at a density of 8×10^4 cells/well in a 24-well plate and grown in DME/F12 media containing 10% FBS for 24 h. The cells were then depleted of serum by incubation in DME/F12 media lacking FBS for 24 h. […] […] Lysed cells were centrifuged at 13,000 rpm for 15 min and the protein concentration soluble fraction (supernatant) of each sample was determined using a BCA protein assay (Pierce).
In general terms: In western blotting, separated proteins are transferred to a membrane and probed.

In a further experiment the target is IGF1R (Homo sapiens, UniProt P08069). Briefly: In vitro IGF-1R enzymatic assay (ADP-Glo kinase assay). The class given is biochemical. More on the design: purchased Millipore 14-802. The conditions noted are these: activated IGF-1R, 30 nM. How it is done: IC50 values of the compounds of the invention against IGF-1R and IR were measured in vitro using an ADP-Glo kinase assay Kit (Promega). […] Kinase reactions in both assays were conducted at 30° C. for 20 min with increasing concentrations of compounds of the invention.
Background: ADP-Glo turns the ADP formed in a reaction into a luminescent signal.

Setting [2] is: average, read-out: % Inh @ 30 nM Avg.
The mark [3] stands for this setting: replicate N1, read-out: % Inh @ 30 nM (N1).
Where [4] appears, read: replicate N2, read-out: % Inh @ 30 nM (N2).

Like-named read-outs stand apart in the source and are kept apart here.

IGF1R, sequence (P08069 31-1367): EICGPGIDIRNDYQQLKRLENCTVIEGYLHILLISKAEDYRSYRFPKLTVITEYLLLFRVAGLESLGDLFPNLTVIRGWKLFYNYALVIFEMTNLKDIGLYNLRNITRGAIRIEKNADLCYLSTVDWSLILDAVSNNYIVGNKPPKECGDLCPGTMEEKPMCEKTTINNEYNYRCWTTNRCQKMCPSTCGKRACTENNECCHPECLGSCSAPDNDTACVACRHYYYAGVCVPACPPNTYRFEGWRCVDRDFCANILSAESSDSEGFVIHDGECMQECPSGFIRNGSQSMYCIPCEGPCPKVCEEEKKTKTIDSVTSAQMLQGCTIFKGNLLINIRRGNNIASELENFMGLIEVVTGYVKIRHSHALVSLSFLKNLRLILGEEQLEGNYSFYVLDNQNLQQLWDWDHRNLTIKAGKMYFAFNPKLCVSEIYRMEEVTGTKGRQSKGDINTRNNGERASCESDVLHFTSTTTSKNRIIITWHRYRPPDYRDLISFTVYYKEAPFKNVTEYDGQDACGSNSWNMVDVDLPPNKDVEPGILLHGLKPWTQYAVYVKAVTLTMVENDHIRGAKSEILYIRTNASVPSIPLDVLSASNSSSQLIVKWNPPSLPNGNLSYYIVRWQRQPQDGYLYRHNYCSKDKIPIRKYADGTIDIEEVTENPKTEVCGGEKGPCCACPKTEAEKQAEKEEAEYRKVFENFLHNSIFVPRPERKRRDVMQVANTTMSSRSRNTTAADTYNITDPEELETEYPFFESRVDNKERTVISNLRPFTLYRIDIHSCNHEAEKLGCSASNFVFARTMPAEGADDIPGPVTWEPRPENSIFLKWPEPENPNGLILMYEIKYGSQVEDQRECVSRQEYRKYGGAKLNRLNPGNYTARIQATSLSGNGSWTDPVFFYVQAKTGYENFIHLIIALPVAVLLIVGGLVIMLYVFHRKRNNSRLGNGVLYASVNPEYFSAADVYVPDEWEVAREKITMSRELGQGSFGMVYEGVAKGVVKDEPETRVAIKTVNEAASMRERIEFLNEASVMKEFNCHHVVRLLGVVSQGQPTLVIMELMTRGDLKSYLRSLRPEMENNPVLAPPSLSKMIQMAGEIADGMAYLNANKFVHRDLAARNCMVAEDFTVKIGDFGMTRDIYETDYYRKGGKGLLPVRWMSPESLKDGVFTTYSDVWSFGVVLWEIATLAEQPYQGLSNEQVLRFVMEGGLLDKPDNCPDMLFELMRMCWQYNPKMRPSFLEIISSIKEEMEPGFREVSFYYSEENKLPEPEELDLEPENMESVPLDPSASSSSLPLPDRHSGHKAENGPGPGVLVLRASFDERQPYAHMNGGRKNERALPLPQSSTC

Take `O=C(Nc1ccc(F)nc1)C1CCCN1c1nc2c(c(Nc3cc(C4CC4)[nH]n3)n1)CCC2` (racemic) [Compound 2, 1-(4-(5-cyclopropyl-1H-pyrazol-3-ylamino)-6,7-dihydro-5H-cyclopenta[d]pyrimidin-2-yl)-N-(6-fluoropyridin-3-yl)pyrrolidine-2-carboxamide]: the entries for the “phosphorylated AKT levels normalized to actin levels (pAKT/actin)” value in experiment [1] (1 nM compound 2 h), in experiment [1] (10 nM compound 2 h) and in experiment [1] (100 nM compound 2 h) were 0.91, 0.07 and 0.00, respectively.
With `O=C(Nc1ccc(F)nc1)C1CCCN1c1nc2c(c(Nc3cc(C4CCCC4)[nH]n3)n1)CCC2` (racemic) [Compound 4, 1-(4-(5-cyclopentyl-1H-pyrazol-3-ylamino)-6,7-dihydro-5H-cyclopenta[d]pyrimidin-2-yl)-N-(6-fluoropyridin-3-yl)pyrrolidine-2-carboxamide], in experiment [1] (100 nM compound 2 h), the “phosphorylated AKT levels normalized to actin levels (pAKT/actin)” value is 0.06.
As to `O=C(Nc1cnccn1)C1CCCN1c1nc2c(c(Nc3cc(C4CC4)[nH]n3)n1)CCC2` (racemic) [Compound 6, 1-(4-(5-cyclopropyl-1H-pyrazol-3-ylamino)-6,7-dihydo-5H-cyclopenta[d]pyrimidin-2-yl)-N-(pyrazin-2-yl)pyrrolidine-2-carboxamide], the “phosphorylated AKT levels normalized to actin levels (pAKT/actin)” value was found to be 0.22 in experiment [1] (1 nM compound 2 h), 0.01 in experiment [1] (10 nM compound 2 h) and 0.01 in experiment [1] (100 nM compound 2 h). Moreover, the “Normalized phosphorylated AKT (relative to actin) levels relative to 0.1 nM compound treatment” value in experiment [1] (100 nM) is listed as 0.0.
As to `O=C(Nc1cncnc1)C1CCCN1c1nc2c(c(Nc3cc(C4CC4)[nH]n3)n1)CCC2` (racemic) [Compound 7, 1-(4-(5-cyclopropyl-1H-pyrazol-3-ylamino)-6,7-dihydro-5H-cyclopenta[d]pyrimidin-2-yl)-N-(pyrimidin-5-yl)pyrrolidine-2-carboxamide], in experiment [1] (100 nM compound 2 h), the “phosphorylated AKT levels normalized to actin levels (pAKT/actin)” value came out at 1.20.
With `O=C(Nc1ccc(F)nc1)C1CCCCN1c1nc2c(c(Nc3cc(C4CC4)[nH]n3)n1)CCC2` (racemic) [Compound 9, 1-(4-(5-cyclopropyl-1H-pyrazol-3-ylamino)-6,7-dihydro-5H-cyclopenta[d]pyrimidin-2-yl)-N-(6-fluoropyridin-3-yl)piperidine-2-carboxamide], the “phosphorylated AKT levels normalized to actin levels (pAKT/actin)” value was determined as 0.67 in experiment [1] (0.1 nM compound 2 h), 0.71 in experiment [1] (1 nM compound 2 h), 0.07 in experiment [1] (10 nM compound 2 h) and 0.00 in experiment [1] (100 nM compound 2 h).
As for `O=C(Nc1ccc(F)nc1)C1CCCN1c1nc2c(c(Nc3cc(C4CC4)[nH]n3)n1)CCC2` (single isomer, unassigned) [Compound 2a, 1-(4-(5-cyclopropyl-1H-pyrazol-3-ylamino)-6,7-dihydro-5H-cyclopenta[d]pyrimidin-2-yl)-N-(6-fluoropyridin-3-yl)pyrrolidine-2-carboxamide], the “phosphorylated AKT levels normalized to actin levels (pAKT/actin)” value in experiment [1] (0.1 nM compound 2 h) was determined as 1.70.
`O=C(Nc1cccnc1)C1CCCN1c1nc2c(c(Nc3cc(C4CC4)[nH]n3)n1)CCC2` (single isomer, unassigned) [Compound 3b, 1-(4-(5-cyclopropyl-1H-pyrazol-3-ylamino)-6,7-dihydro-5H-cyclopenta[d]pyrimidin-2-yl)-N-(pyridin-3-yl)pyrrolidine-2-carboxamide]: the “phosphorylated AKT levels normalized to actin levels (pAKT/actin)” value came to 1.70 in experiment [1] (1 nM compound 2 h), 0.57 in experiment [1] (10 nM compound 2 h) and 0.02 in experiment [1] (100 nM compound 2 h).
For `O=C(Nc1ccc(F)nc1)C1CCCN1c1nc2c(c(Nc3cc(C4CCCC4)[nH]n3)n1)CCC2` (single isomer, unassigned) [Compound 4b, 1-(4-(5-cyclopentyl-1H-pyrazol-3-ylamino)-6,7-dihydro-5H-cyclopenta[d]pyrimidin-2-yl)-N-(6-fluoropyridin-3-yl)pyrrolidine-2-carboxamide], the “phosphorylated AKT levels normalized to actin levels (pAKT/actin)” value in experiment [1] (100 nM compound 2 h) turned out to be 0.20.
Regarding `O=C(Nc1cnccn1)C1CCCN1c1nc2c(c(Nc3cc(C4CC4)[nH]n3)n1)CCC2` (single isomer, unassigned) [Compound 6a], the “phosphorylated AKT levels normalized to actin levels (pAKT/actin)” value in experiment [1] (10 nM compound 2 h) turned out to be 1.40.
For the compound `O=C(Nc1ccc(F)nc1)C1CCCCN1c1nc2c(c(Nc3cc(C4CC4)[nH]n3)n1)CCC2` (single isomer, unassigned) [Compound 9a, 1-(4-(5-cyclopropyl-1H-pyrazol-3-ylamino)-6,7-dihydro-5H-cyclopenta[d]pyrimidin-2-yl)-N-(6-fluoropyridin-3-yl)piperidine-2-carboxamide], the “phosphorylated AKT levels normalized to actin levels (pAKT/actin)” value came to 0.53 in experiment [1] (10 nM compound 2 h) and 0.02 in experiment [1] (100 nM compound 2 h).
For the compound `O=C(Nc1ccc(F)nc1)C1C(O)CCN1c1nc2c(c(Nc3cc(C4CC4)[nH]n3)n1)CCC2` (single isomer, unassigned) [Compound 11a], the inhibition at 0.03 µM on IGF1R (setting [2]) turned out to be 13%; on IGF1R (setting [3]), 17%; at IGF1R (setting [4]), 10%.
For the compound `O=C(Nc1ccc(F)nc1)C1C(O)CCN1c1nc2c(c(Nc3cc(C4CC4)[nH]n3)n1)CCC2` (single isomer, unassigned) [Compound 11b, 1-(4-(5-cyclopropyl-1H-pyrazol-3-ylamino)-6,7-dihydro-5H-cyclopenta[d]pyrimidin-2-yl)-N-(6-fluoropyridin-3-yl)-3-hydroxypyrrolidine-2-carboxamide], in experiment [1] (100 nM compound 2 h), the “phosphorylated AKT levels normalized to actin levels (pAKT/actin)” value was 0.33.
For the compound `CC(C)c1cc(Nc2nc(N3CCCC3C(=O)Nc3ccc(F)nc3)nc3c2CCC3)on1` (single isomer, unassigned) [Compound 12a, N-(6-fluoropyridin-3-yl)-1-(4-(3-isopropylisoxazol-5-ylamino)-6,7-dihydro-5H-cyclopenta[d]pyrimidin-2-yl)pyrrolidine-2-carboxamide], the results for the inhibition at 0.03 µM at IGF1R (setting [2]), at IGF1R (setting [3]) and at IGF1R (setting [4]) were 20%, 19% and 20%, respectively.
In the case of `CC(C)c1cc(Nc2nc(N3CCCC3C(=O)Nc3ccc(F)nc3)nc3c2CCCC3)n[nH]1` (single isomer, unassigned) [Compound 13a, N-(6-fluoropyridin-3-yl)-1-(4-(5-isopropyl-1H-pyrazol-3-ylamino)-5,6,7,8-tetrahydroquinazolin-2-yl)pyrrolidine-2-carboxamide], the “phosphorylated AKT levels normalized to actin levels (pAKT/actin)” value in experiment [1] (0.1 nM compound 2 h) is given as 0.51; in experiment [1] (1 nM compound 2 h) it was 0.54; in experiment [1] (10 nM compound 2 h), 0.45; in experiment [1] (100 nM compound 2 h), 0.80.
In the case of `O=C(Nc1ccc(F)nc1)C1CCCN1c1nc2c(c(Nc3cc(C4CC4)[nH]n3)n1)CCCC2` (single isomer, unassigned) [Compound 14a, 1-(4-(5-cyclopropyl-1H-pyrazol-3-ylamino)-5,6,7,8-tetrahydroquinazolin-2-yl)-N-(6-fluoropyridin-3-yl)pyrrolidine-2-carboxamide], the “phosphorylated AKT levels normalized to actin levels (pAKT/actin)” value in experiment [1] (0.1 nM compound 2 h) worked out at 0.73; in experiment [1] (1 nM compound 2 h) it was 0.51; in experiment [1] (10 nM compound 2 h), 0.43; in experiment [1] (100 nM compound 2 h) it was 0.35.
In the same order, the values of `O=C(Nc1ccc(F)nc1)C1CCCN1c1nc2c(c(Nc3cc(C4CCCC4)[nH]n3)n1)CCCC2` (single isomer, unassigned) [Compound 15b, 1-(4-(5-cyclopentyl-1H-pyrazol-3-ylamino)-5,6,7,8-tetrahydroquinazolin-2-yl)-N-(6-fluoropyridin-3-yl)pyrrolidine-2-carboxamide] are 0.52, 0.58, 0.43 and 0.13.
In the same order, the values of `CC(C)c1cc(Nc2nc(N3CCCCC3C(=O)Nc3ccc(F)nc3)nc3c2CCC3)n[nH]1` (single isomer, unassigned) [Compound 16b, N-(6-fluoropyridin-3-yl)-1-(4-(5-isopropyl-1H-pyrazol-3-ylamino)-6,7-dihydro-5H-cyclopenta[d]pyrimidin-2-yl)piperidine-2-carboxamide] are 0.53, 0.51, 0.15 and 0.01.
On to `O=C(Nc1ccc(F)nc1)C1CCCCN1c1nc2c(c(Nc3cc(C4CCCC4)[nH]n3)n1)CCC2` (single isomer, unassigned) [Compound 17b, 1-(4-(5-cyclopentyl-1H-pyrazol-3-ylamino)-6,7-dihydro-5H-cyclopenta[d]pyrimidin-2-yl)-N-(6-fluoropyridin-3-yl)piperidine-2-carboxamide], for which the “phosphorylated AKT levels normalized to actin levels (pAKT/actin)” value is given as 0.83 in experiment [1] (0.1 nM compound 2 h), 0.99 in experiment [1] (1 nM compound 2 h) and 0.95 in experiment [1] (10 nM compound 2 h).
`CC(C)c1cc(Nc2nc(N3CCCC3C(=O)N(C)C)nc3c2CCC3)n[nH]1` (single isomer, unassigned) [Compound 20a, 1-(4-(5-isopropyl-1H-pyrazol-3-ylamino)-6,7-dihydro-5H-cyclopenta[d]pyrimidin-2-yl)-N,N-dimethylpyrrolidine-2-carboxamide]: the inhibition at 0.03 µM at IGF1R (setting [2]) came to 11%.

The values above are taken from patent US9422267B2, “Fused pyrimidine compounds and use thereof” (Medivation Technologies, Inc., priority 2012, dated 2016).
